From patent US10017535B2, “Amphiphilic compounds with neuroprotective properties” (USTAV ORGANICKE CHEMIE A BIOCHEMIE AV CR, v.v.i., priority 2014, dated 2018)
Counter-ions that a name gives are not always drawn. Like-named read-outs stand apart in the source and are kept apart here.

Assays:
[1] = target: T1, NR1-1a/NR2B NMDA receptor (Rattus norvegicus, UniProt P35439+Q00960); assay: Patch-clamp inhibition of glutamate-evoked currents at recombinant NMDA receptors in transfected HEK293 cells; format: cell-based
T1 construct: expressed in transfected cells; host or cells: HEK293 cells (ATCC CRL1573)
T1 sequence (Q00960 27-1482, other chains not shown): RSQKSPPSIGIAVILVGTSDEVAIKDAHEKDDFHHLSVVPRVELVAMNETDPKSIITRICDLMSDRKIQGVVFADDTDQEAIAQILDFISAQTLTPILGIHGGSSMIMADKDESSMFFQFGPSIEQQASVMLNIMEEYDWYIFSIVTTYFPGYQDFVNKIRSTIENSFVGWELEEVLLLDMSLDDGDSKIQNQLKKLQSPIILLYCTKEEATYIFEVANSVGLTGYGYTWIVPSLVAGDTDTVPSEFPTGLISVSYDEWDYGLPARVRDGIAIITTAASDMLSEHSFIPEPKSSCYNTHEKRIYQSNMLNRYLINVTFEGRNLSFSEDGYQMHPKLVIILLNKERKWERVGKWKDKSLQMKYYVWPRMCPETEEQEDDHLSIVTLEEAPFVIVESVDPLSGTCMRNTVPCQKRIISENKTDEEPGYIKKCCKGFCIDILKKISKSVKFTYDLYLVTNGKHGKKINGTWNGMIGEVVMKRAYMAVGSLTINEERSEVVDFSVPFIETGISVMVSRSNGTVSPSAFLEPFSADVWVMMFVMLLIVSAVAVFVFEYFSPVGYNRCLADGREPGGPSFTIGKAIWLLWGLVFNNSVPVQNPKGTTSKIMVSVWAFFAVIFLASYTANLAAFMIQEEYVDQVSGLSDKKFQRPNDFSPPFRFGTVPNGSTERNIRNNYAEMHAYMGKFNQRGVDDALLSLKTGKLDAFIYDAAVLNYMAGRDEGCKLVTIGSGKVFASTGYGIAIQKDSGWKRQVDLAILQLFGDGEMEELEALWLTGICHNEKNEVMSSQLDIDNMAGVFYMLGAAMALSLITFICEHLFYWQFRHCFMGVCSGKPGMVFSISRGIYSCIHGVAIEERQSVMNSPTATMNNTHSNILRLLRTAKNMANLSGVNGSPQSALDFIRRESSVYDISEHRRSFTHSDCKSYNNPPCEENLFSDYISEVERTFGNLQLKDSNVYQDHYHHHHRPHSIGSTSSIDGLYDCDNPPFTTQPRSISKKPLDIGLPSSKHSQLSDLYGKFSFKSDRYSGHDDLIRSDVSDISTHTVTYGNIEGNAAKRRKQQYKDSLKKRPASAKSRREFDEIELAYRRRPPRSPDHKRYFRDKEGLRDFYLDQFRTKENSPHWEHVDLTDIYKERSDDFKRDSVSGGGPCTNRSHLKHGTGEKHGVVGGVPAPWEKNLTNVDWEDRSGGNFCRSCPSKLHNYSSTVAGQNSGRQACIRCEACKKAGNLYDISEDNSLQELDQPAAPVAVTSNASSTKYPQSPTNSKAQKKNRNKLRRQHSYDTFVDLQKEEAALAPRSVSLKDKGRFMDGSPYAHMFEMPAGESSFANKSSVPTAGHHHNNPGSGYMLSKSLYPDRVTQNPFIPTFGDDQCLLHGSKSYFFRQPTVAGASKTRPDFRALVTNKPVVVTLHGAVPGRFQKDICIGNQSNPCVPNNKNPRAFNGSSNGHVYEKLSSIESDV
Experimental: Transfected cells were identified by means of fluorescent green protein (GFP) fluorescence. Its genus was transfected together with the both receptor subunit genes.
Steroid-containing solutions were prepared from fresh solution (20 mmol·l^−1, of steroid dissolved in dimethyl sulfoxide, DMSO), which was added to the extracellular solution containing 1 mmol·l^−1 glutamic acid and 10 μmol·l^−1 of glycine. Identical concentrations of DMSO were added to all other extracellular solutions.
Current responses produced by extracellular application of glutamic acid solution (1 mmol·l^−1) were measured from the whole cell by patch-clamp technique, which is used for the study of transport of charged particles through model and also natural biological membranes. The currents were measured at membrane potential maintained at −60 mV and +60 mV.
Same amounts (0.3 μg) of cDNA coding NR1, NR2 and GFP (green fluorescent protein) (pQBI 25, Takara, Japan) were mixed with 0.9 μl of Matra-A Reagent (IBA, Göttingen, Germany) and added to confluent HEK293 cells cultivated in v 24-pit cultivating plate. After trypsination, the cells were re-suspended in Opti-MEM® I containing 1% fetal bovine serum. Subsequently, 20 mmol·l^−1 MgCl2, 1 mmol l^−1 D,L-2-amino-5-phosphonopentanoic acid, 3 mmol·l^−1 kynurenic acid was added to the mixture and cells were inoculated on the polylysine-coated glass plates having 25 mm in diameter. The following genes coding NMDA receptor subunits were used for transfection: NR1-1 a (GenBank accession No. U08261) and NR2B (GenBank accession No. M91562).
HEK293 Cultured cells were used for electrophysiological investigations with a latency of 16-40 h after transfection. Whole-cell currents were measured by patch-clamp amplifier (Axopatch 1D; Axon Instruments, Inc. Foster City, USA) after capacitance and serial resistance (<10 MΩ) compensation to 80-90%. Agonist-induced responses were filtered to 1 kHz (8-pole Bessel filter; Frequency Devices, Haverhill, USA), digitized with sampling frequency of 5 kHz and analyzed by pClamp version 9 software (Axon Instruments, USA). […] Extracellular solution (ECS) contained 160 mmol·l^−1 sodium chloride, 2.5 mmol·l^−1 potassium chloride, 10 mmol·l^−1 HEPES, 10 mmol·l^−1 glucose, 0.2 mmol·l^−1 EDTA a 0.7 mmol·l^−1 calcium chloride (pH adjusted to 7.3 by sodium hydroxide solution). Glycine was added to both testing and control solution. Moreover, bicuculline (10 μmol·l^−1) and tetrodotoxin (0.5 μmol·l^−1) was added to hippocampal cultures. Steroid-containing solutions were prepared from fresh solution (20 mmol·l^−1) of steroid dissolved in dimethyl sulfoxide (DMSO). Same concentrations of DMSO were used in all extracellular solutions. Control and experimental solutions were applied via microprocessor-controlled perfusion system with approx. rate of solution exchange in areas adjacent to cells reaching ˜10 ms.
Current responses produced by 100 μmol·l^−1 of NMDA (in the case of hipocampal neurones), or by 1 mmol·l^−1 of glutamate (on recombinant NMDA receptors) were measured at membrane potential maintained at −60 mV. […] Relative effect of steroid-induced inhibition was used for calculating IC50.

[2] = test system: laboratory mice, strain CD-1; assay: Open field test (locomotor activity, sedative effect); format: in vivo; settings: for overall pathway in open field: 0.3 mg/kg, 50 minutes
Experimental: In the Experimental Part 1 were used adults (30-35 g) male laboratory mice, strain CD-1 from Velaz facility, Czech Republic. Mice were housed in plastic boxes with a 12-hour light cycle (lights on at 7:00 pm). Mice had free access to food and water.
Amphiphilic steroid compounds were dissolved in a solution of 3 g (2-hydroxypropyl)-β-cyclodextrin (CDX, Sigma-Aldrich) and 157 mg of citric acid ([…], Sigma-Aldrich) in 30 ml of distilled water, the pH was adjusted to 7.4 using sodium hydroxide (NaOH, Sigma-Aldrich). Thus there were prepared solutions of the four steroids for application rates of 0.1, 1, 10 and 100 mg/kg.
The efficacy of the studied compounds was compared to known NMDA antagonist is memantine (Sigma-Aldrich) at a dose of 5 mg/kg in rats, ketamine (Vétoquinol) at 10 mg/kg and dizocilpine (MK-801) (Sigma-Aldrich) at a dose of 0.3 mg/kg in mice. These three compounds were dissolved in saline (B Braun).
The substances at dose 0.1-100 mg/kg were administered before the test to mice intraperitoneally. As controls were used intact mice and mice that received CDX solution. Also, MK-801 (0.3 mg/kg) was used for comparison of effects of noncompetitive antagonist of NMDA receptors. From the experiment was evaluated overall track anywhere in the arena as an indicator of locomotor activity. In addition, it was judged a ten-minute segments track during each experiment. Based on these values, it was possible to determine the latency time of onset of action and changes in locomotor activity over time.
In this arrangement, the sedative effect of the studied compounds at the highest dose was evaluated. […] Over time was monitored locomotor activity and possible changes characterized by tremor, ataxia, restlessness, or sedation or general anesthesia (absence of response to stimuli, decreased muscle tone).

[3] = HEK293, read-out: Mean % change ± SD
[4] = calculated from relative steroid-induced inhibition, Hill's coefficient 1.2, read-out: IC50
[5] = steroid concentration 3 μmol·l^−1, 1 mmol·l^−1 glutamate, −60 mV

Molecule | melting point [°C] | IC50 [1, 4] [µM] | further results
C=C(C)[C@H]1CC[C@H]2[C@@H]3CC[C@@H]4C[C@H](OC(=O)CCC(=O)O)CC[C@]4(C)[C@H]3CC[C@]12C | 148 to 149.5 | – | –
C[C@@]12CCCCC1[C@@H]1CC[C@@H]3C[C@H](OC(=O)CC(=O)O)CC[C@]3(C)[C@H]1CC2 (stereo partly drawn) [Compound 102, 3-(((2R,4aS,4bS,6aS,10bS,12aR)-4a,6a-Dimethyloctadecahydrochrysen-2-yl)oxy)-3-oxopropanoic acid] | 145.3 to 147.2 | – | –
C[C@H]1CC[C@H]2[C@@H]3CC[C@@H]4C[C@H](OC(=O)CC(=O)O)CC[C@]4(C)[C@H]3CC[C@]12C | 158 to 161.2 | – | –
C[C@]12CC[C@@H](OS(=O)(=O)O)C[C@H]1CC[C@@H]1[C@@H]2CC[C@@]2(C)[C@H]1CCC2(F)F (as salt: salt) [Compound 95, Pyridinium (3R,5R,8R,9S,10S,13S,14S)-17,17-difluoro-10,13-dimethylhexadecahydro-1H-cyclopenta[a]phenanthren-3-yl 3-sulfate] | 185 to 187 | – | –
C[C@]12CC[C@@H](OS(=O)(=O)O)C[C@H]1CC[C@@H]1[C@@H]2CC[C@]2(C)[C@@H](I)CC[C@@H]12 (as salt: salt) [Compound 93, Pyridinium (3R,5R,8R,9S,10S,13S,14S,17S)-17-iodo-10,13-dimethylhexadecahydro-1H-cyclopenta[a]phenanthren-3-yl 3-sulfate] | 118 to 120 | – | –
C[C@H]1CC[C@H]2[C@@H]3CC[C@@H]4C[C@H](OC(=O)CCC(=O)O)CC[C@]4(C)[C@H]3CC[C@]12C | 141 to 142 | – | –
C[C@@]12CCCCC1[C@@H]1CC[C@@H]3C[C@H](OC(=O)CCC(=O)O)CC[C@]3(C)[C@H]1CC2 (stereo partly drawn) [Compound 103, 4-(((2R,4aS,4bS,6aS,10bS,12aR)-4a,6a-Dimethyloctadecahydrochrysen-2-yl)oxy)-4-oxobutanoic acid] | 136 to 138 | – | –
COC(=O)[C@@]1(C)CC[C@H]2[C@@H](CC[C@@H]3C[C@H](OS(=O)(=O)O)CC[C@@]32C)C1 (as salt: sulfate) [Compound 40, Methyl (2S,4aS,4bS,7R,8aR,10aS)-2,4b-dimethyl-7-(sulfooxy)tetradecahydrophenanthren-2-carboxylate] | 115 to 118 | – | –
C=C1C[C@H]2[C@@H]3CC[C@@H]4C[C@H](OS(=O)(=O)O)CC[C@]4(C)[C@H]3CC[C@]2(C)C1 (as salt: salt) [Compound 114, Pyridinium (3R,5R,8S,9S,10S,13R,14S)-10,13-dimethyl-16-methylenhexadekhydro-1H-cyclopenta[a]phenanthren-3-yl 3-sulfate] | 180 to 182 | – | –
C[C@@]12CCC[C@H]1[C@@H]1CC[C@@H]3C[C@H](OC(=O)[C@@H](N)CCCNC(=N)N)CC[C@]3(C)[C@H]1CC2.Cl.Cl | 238 to 240 | – | –
C[C@@]12CCC[C@H]1[C@@H]1CC[C@@H]3C[C@H](OC(=O)CCC[N+](C)(C)C)CC[C@]3(C)[C@H]1CC2 [Compound 62, 4-(((3R,5R,8S,9S,10S,13S,14S)-10,13-Dimethylhexadecahydro-1H-cyclopenta[a]-phenanthren-3-yl)oxy)-N,N,N-trimethyl-4-oxobutan-1-ammonium chloride] | – | 1.7 | inhibition at 1 µM [1, 3]: 34 ± 5%
C/C=C1/CC[C@H]2[C@@H]3CC[C@@H]4C[C@H](NC(=O)CC(=O)O)CC[C@]4(C)[C@H]3CC[C@]12C [Compound 155, 3-(((3R,5R,8R,9S,10S,13S,14S,Z)-17-Ethylidene-10,13-dimethylhexadecahydro-1H-cyclopenta[a]phenanthren-3-yl)amino)-3-oxopropanoic acid] | – | – | IC50 [1]: 8.7 µM; inhibition at 10 µM [1, 3]: 54.4 ± 5%
Pyridinium (2S,4aR,4bR,8aS,10aS)-4a-methyltetradecahydrophenanthren-2-yl 2-sulfate [Compound 128] | – | 36.3 | Mean % change ± SD ([1]; steroid concentration 50 μmol·l^−1, 1 mmol·l^−1 glutamate, −60 mV): 58.0 ± 2.0%
Pyridinium (3R,5R,8S,9S,10S,13R,14R,17S)-10,17-dimethylhexadecahydro-1H-cyclopenta[a]phenanthren-3-yl 3-sulfate [Compound 119] | – | 0.7 | Mean % change ± SD [1, 5]: 81.1 ± 2.1%
C[C@@]12CCC[C@H]1[C@H]1CC[C@H]3C[C@H](OS(=O)(=O)O)CC[C@]3(C)[C@@H]1CC2.c1ccncc1 [Compound 127, Pyridinium (3R,5S,8R,9R,10S,13S,14S)-10,13-dimethylhexadecahydro-1H-cycopenta[a]phenanthren-3-yl 3-sulfate] | – | 1.7 | Mean % change ± SD [1, 5]: 34.0 ± 5.0%
Pyridinium (3R,5R,8S,9S,10S,13R,14S,17S)-17-ethyl-10,13-dimethylhexadecahydro-1H-cyclopenta[a]phenanthren-3-yl 3-sulfate [Compound 120] | – | 0.5 | –
C[C@@]12CCC[C@H]1[C@@H]1CC[C@@H]3C[C@H](OC(=O)CC(=O)O)CC[C@]3(C)[C@H]1CC2 [Compound 51] | – | 15.5 | inhibition at 10 µM [1, 3]: 42 ± 14%
C[C@]12N[C@H](Cc3ccccc31)c1ccccc12 [dizocilpine, reference compound] | – | – | overall pathway in open field ([2]; vs CDX control group): significant increases; overall pathway in open field ([2]; vs intact animals (p=0.0653)): tendency to increasement; time course of locomotor activity ([2]; dizocilpine 0.3 mg/kg, ten-minute sections): gradual increase; total locomotor activity ([2]; dizocilpine 0.3 mg/kg, vs two control groups): significantly higher
C[C@]12CC[C@@H](OC(=O)CCC(=O)O)C[C@H]1CC[C@@H]1[C@@H]2CC[C@]2(C)C=CC[C@@H]12 [Compound 64, 4-(((3R,5R,8R,9S,10S,13R,14S)-10,13-Dimethyl-2,3,4,5,6,7,8,9,10,11,12,13,14,15-tetra-decahydro-1H-cyclopenta[a]phenanthren-3-yl)oxy)-4-oxobutanoic acid] | – | 12.9 | inhibition at 10 µM [1, 3]: 45.9 ± 11.7%
Pyridinium (3R,5R,8R,9S,10S,13S,14S,17R)-10,13-dimethyl-17-(prop-1-en-2-yl)hexadecahydro-1H-cyclopenta[a]phenanthren-3-yl 3-sulfate [Compound 121] | – | 0.4 | Mean % change ± SD ([1]; steroid concentration 1 μmol·l^−1, 1 mmol·l^−1 glutamate, −60 mV): 71.7 ± 8.0%
COC[C@@]1(C)CC[C@H]2[C@@H](CC[C@@H]3C[C@H](OC(=O)CCC(=O)O)CC[C@@]32C)C1C (stereo partly drawn) [Compound 19, 4-(((2R,4aS,4bS,7S,8aS,10aR)-7-(methoxymethyl)-4a,7,8-trimethyltetradecahydrophenanthren-2-yl)oxy)-4-oxobutanoic acid] | – | 55 | inhibition at 50 µM ([1]; HEK293, steroid concentration 50 μmol·l^−1, 1 mmol·l^−1 glutamate, −60 mV, read-out: Mean % change ± SD): 47.4 ± 4.3%
